From PMC5442318, “Hundreds of dual-stage antimalarial molecules discovered by a functional gametocyte screen” (Nature Communications, 2017)
Read-outs that look alike come from different tables or passages of the source.

Experiments:
HepG2 cells = assay: HepG2 cytotoxicity assay; assay type: cell-based
Description: After incubation, plates and CellTiter-Glo Reagent (G7571, Promega) were equilibrated at room temperature for 30 min before proceeding to develop the luminescent signal. Using a Multidrop combi dispenser, 25 μl per well of the signal developer were added to the plates and after 10 min at room temperature for stabilization, plates were read on the ViewLux system (Perkin Elmer).

[1] = tested on: P. falciparum stages IV–V gametocytes; assay: Gametocytocidal ATP-depletion assay (gametocyte ATP bioluminescence); assay type: cell-based, Plasmodium falciparum
Description: In parallel, the set of confirmed hits from the Pf FGAA screen was cross-compared in the gametocyte ATP-depletion assay, at 2 μM single concentration (Supplementary Data 1). This assay monitors ATP levels as surrogate of gametocyte viability.
‘Viability' of mature gametocytes was determined using the gametocyte ATP bioluminiscence assay. Briefly, stages IV–V gametocyte cultures were double-purified by differential sedimentation followed by magnetic isolation. Then, parasites (50 μl per well containing 12,500 gametocytes) were added to compound pre-dispensed 384-well plates (781091, Greiner Bio-One) and incubated at 37 °C for 48 h (3% O2, 5% CO2 and 92% N2). BacTiter-Glo kit (G8231, Promega) was used to determine the ATP levels of ‘live' parasites according to the manufacturer's instructions. After reagent addition (50 μl per well), luminescence of the plates was measured using a microplate reader (HTS counter Victor, Wallac).

[2] = tested on: P. falciparum stage V female gametocytes; assay: P. falciparum female gametocyte activation assay (Pf FGAA), 24 h or 48 h preincubation, Pfs25 expression readout; assay type: cell-based, Plasmodium falciparum NF54; settings: mean, read-out: Gametocytes mean Pf FGAA IC50
Description: P. falciparum NF54 (originally isolated from an imported malaria case in the Netherlands in the 1980s; BEI Resources, cat. no. MRA-1000) asexual-stage culture was performed as described by Trager and Jensen[37]. Cultures synchronized at the ring stage were used to start gametocyte cultures (day 0) at 1% parasitaemia and 4% haematocrit in 200 ml final volume using culture bottles (Nalgene 3110-42, Thermo Scientific). Complete culture medium (RPMI 1640 supplemented with 25 mM HEPES, 50 μg ml^−1 hypoxanthine, 2 g l^−1 NaHCO3 and 10% pooled human male type A+ serum) was totally replaced daily for 14 days without fresh erythrocyte addition. Human serum was obtained from Interstate Blood Bank, A^+ serotype; no aspirin 2 h before drawing and no antimalarials 2 weeks before drawing. To ensure a stable temperature at 37 °C, which is crucial for gametocyte production and maturation, pre-warmed medium and a slide warmer (XH-2001, Premiere) were used. Under these conditions, parasitaemia reaches a peak of asexual stages on days 4–5, and the first gametocytes are differentiated in culture on day 6. Sexual-stage development was monitored microscopically by Giemsa-stained thin blood smears at day 7 (mainly asexual stages and stages I to III gametocytes) and day 14 (stages IV and V gametocytes).
Cultures showing mainly stage V gametocytes were purified by differential sedimentation as previously reported. The gametocyte concentration was adjusted to plate 8,000 gametocytes per well (100 μl per well) in 384-well poly-D-lysine coated plates (781946, Greiner Bio-One) containing the compounds to test. […] Female gametocyte activation was then triggered by temperature drop and addition of xanthurenic acid (D120804, Sigma) as previously described. To detect female gametes, monoclonal anti-Pfs25 antibody[38] 4B7 (BEI Resources (formerly MR4), cat. no. MRA-315) conjugated to the Cy3 fluorochrome (GE Healthcare) was added to ookinete medium (RPMI 1640 supplemented with 25 mM HEPES, 50 μg ml^−1 hypoxanthine, 2 g l^−1 NaHCO3, 100 μM xanthurenic acid and 20% human serum) at a final concentration of 0.5 μg ml^−1. Activated cultures were then kept at 26 °C for 24 h protected from light, and image acquisition was performed in the Opera High-Content Screening System (PerkinElmer). Using × 10 air objective, five images per well were taken using 532 nm excitation. Images were analysed with a Columbus image data storage and analysis system (PerkinElmer) based on a script specifically designed for this assay that considers size, roundness and intensity of fluorescence of the female activated gametocytes.
Compounds were dissolved in 100% DMSO and dispensed in the 384-well plates using an Echo-CRS liquid handler. Compounds were tested in 2–3 independent experiments. […] Based on that, Z′ factor was calculated for each plate and only those ones with values higher than 0.4 were considered acceptable for data analysis.
Assay performance statistics, such as signal to background ratio, Z′ and robust 3 s.d. activity cut-off were calculated using templates in ActivityBase XE (IDBS, Guilford, Surrey, UK). Hit population analysis and visualization were conducted using Spotfire DecisionSite (Spotfire, Inc., Somerville, MA, USA). The pIC50 (−log IC50) values were obtained using the ActivityBase XE nonlinear regression function in the full curve analysis bundle.

[3] = tested on: P. falciparum asexual blood stages; settings: read-out: Pf Asexual blood stages XC50, cited from earlier work
[4] = TCAMS data, ref 1 (Gamo et al., 2010)
[5] = P. falciparum female gametocytes
[6] = TCAMS asexual blood stage data, ref 1 (Gamo, F. J. et al., Nature 465, 305-310, 2010)
[7] = P. falciparum female gametocyte activation assay

Compound | HepG2 cells mean TOX50 (HepG2 cells; mean) [µM] | Gametocytes mean ATP inhibition at 2µM (%) [1] [%] | IC50 [2] [nM] | IC50 [3, 4] [nM] | HepG2 cells mean TOX50 (HepG2 cells; HepG2 cells; mean) [µM] | Gametocytes mean ATP inhibition at 2µM [1] [%] | IC50 [3, 6] [nM] | also measured
Cl.c1ccc2c(C3CCN(CCCCOc4ccc5c(c4)CCN(CC4CC4)CC5)CC3)c[nH]c2c1 [TCMDC-136244] | 5.15 | -6.50 | 1150 | 980 |  |  |  | 
c1cc(Nc2nc(-c3ccc(-c4csc(Nc5ccncc5)n4)cc3)cs2)ccn1 [TCMDC-139725] | 2.26 | 93.92 | 30 | 120 |  |  |  | 
Cl.N[C@@H](CCNC1CCN(c2cccc(C(F)(F)F)c2)CC1)Cc1ccc(F)c(F)c1 [TCMDC-132301] |  |  |  |  | 3.76 | 70.53 | 1280 | IC50 [2, 5]: 440 nM
COc1c(C2CCN(CCN3CCC(CNC(=O)c4ccc(-c5ccc(C#N)cc5)cc4)CC3)CC2)ccc2c1CCCC2 [TCMDC-138859] | 3.43 | 3.05 | 1460 | 460 |  |  |  | 
C[C@H](Cc1ccc(OCCCCCOc2ccc(C[C@@H](C)NC[C@H](O)c3cccc(Cl)c3)cc2)cc1)NC[C@H](O)c1cccc(Cl)c1.Cl [TCMDC-131563] |  |  |  |  | 2.11 | 21.40 | 190 | IC50 [2, 5]: 960 nM
CCc1ccc(C2CCN(CCCCNC(=O)c3ccc(NC(=O)c4ccc(Cl)cc4)cc3)CC2)c(OCCO)c1 [TCMDC-138703] | 5.37 | -4.56 | 2250 | 1390 |  |  |  | 
CCCN(CC1CC1)c1ncc(-c2cccc(CNCCC3CCCN3C)c2)cn1 (stereo not drawn) [TCMDC-133142] |  |  |  |  | 3.09 | 6.70 | 750 | IC50 [2, 5]: 2180 nM
COc1ccc2cc(CNCCCCCCNCc3ccc4cc(OC)ccc4c3)ccc2c1.CS(=O)(=O)O [TCMDC-137797] | 1.55 | 35.46 | 590 | 620 |  |  |  | 
Cc1cc(N)c2cc(NC(=O)/C=C/c3ccc([N+](=O)[O-])cc3)ccc2n1 [TCMDC-139335] | 5.37 | -7.69 | 2690 | 670 |  |  |  | 
CC(C)(CNC(=O)[C@H]1CCCN1)c1nc(-c2ccc(Cl)c(O)c2)c(-c2ccncc2)[nH]1.Cl [TCMDC-141060] |  |  |  |  |  | -7.23 | 1270 | HepG2 cells mean TOX50 (HepG2 cells; mean; HepG2 cells): 32.74 µM; IC50 [2, 7]: 1210 nM
Cc1c(Cn2ncc(N3CCC(N)CC3)c(Cl)c2=O)cccc1NC(=O)Nc1ccc(-c2ccccc2)cc1.O=C(O)C(F)(F)F [TCMDC-141931] |  |  |  |  |  | 22.47 | 700 | HepG2 cells mean TOX50 (HepG2 cells; mean; HepG2 cells): 22.90 µM; IC50 [2, 7]: 1090 nM
COc1ccc2c(c1CCNCCCCNCCc1c(OC)ccc3c1CCCC3)CCCC2.CS(=O)(=O)O [TCMDC-137324] | 1.68 | 95.49 | 640 | 380 |  |  |  | 
FC(F)(F)c1cccc(Nc2nc3ccccc3nc2Nc2cccc(C(F)(F)F)c2)c1 [TCMDC-124162] |  |  |  |  | 17.68 | 20.50 | 140 | IC50 [2, 5]: 2400 nM
COc1ccc(Nc2nccc(-c3ccc4ccnc(NCCCCN)c4c3)n2)cc1 [TCMDC-136642] | 14.29 | 21.11 | 1510 | 750 |  |  |  | 
SC(=Nc1ccc(Cl)c(Cl)c1)NN=Cc1ccccn1 [TCMDC-125522] |  |  |  |  | 3.47 | 64.79 | 770 | IC50 [2, 5]: 80 nM
CC[C@H]1CN2CCc3cc(OC)c(OC)cc3[C@@H]2C[C@@H]1C[C@H]1NCCc2cc(OC)c(OC)cc21 [TCMDC-125531] |  |  |  |  | 9.77 |  | 210 | inhibition at 2 µM ([1]; Plasmodium falciparum, mean): 56%; IC50 ([2]; Plasmodium falciparum, P. falciparum female gametocytes): 2730 nM
CS(=O)(=O)O.FC(F)(F)COc1ccc2ccccc2c1CCNCCCCNCCc1c(OCC(F)(F)F)ccc2ccccc12 [TCMDC-137317] | 2.09 | 88.24 | 1010 | 430 |  |  |  | 
Nc1ccc2[nH]cc(C3CCN(CCC4CCN(C(=O)/C=C/c5ccc(Cl)c(Cl)c5)CC4)CC3)c2n1 [TCMDC-140062] | 8.13 | -11.87 | 1290 | 740 |  |  |  | 
Br.CCCCc1ccc(CCNCCCCCCNCCc2ccc(O)c(O)c2)cc1 [TCMDC-131281] |  |  |  |  | 4.63 | 60.07 | 1070 | IC50 [2, 5]: 2150 nM
COc1ccc2c(OC)c(CNCCCCCCNCc3ccc4cc(OC)ccc4c3OC)ccc2c1.CS(=O)(=O)O [TCMDC-137953] | 2.11 | 2.77 | 1000 | 920 |  |  |  | 
CC(Cc1ccc(C(=O)Nc2ccc(CC(C)NCCc3cccc(Cl)c3)cc2)cc1)NCCc1ccc(C(F)(F)F)cc1 (stereo not drawn) [TCMDC-139790] | 4.13 | 57.11 | 1010 | 570 |  |  |  | 
